According to ChEMBL document CHEMBL1201862, “PubChem BioAssay data set” (2004):
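Dose response: 5 concentrations. Exposure: 48 h. Format: 96-well plates. Endpoint: linear interpolation; highest concentration if not reached. GI50 marks 50% less growth.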 Activity calls are given as the source filed them. No stated cut-off is given here; in the data, active = GI50 up to about 1.1 µM and inactive = higher.

Columns and labels:
Test in all cases: NCI anticancer screen, dose series, 48 h
SF-539 = tested on: SF-539
HOP-62 = tested on: HOP-62
BT-549 = tested on: BT-549
RPMI-8226 = tested on: RPMI-8226
RXF 393 = tested on: RXF 393
OVCAR-3 = tested on: OVCAR-3
UACC-257 = tested on: UACC-257
OVCAR-8 = tested on: OVCAR-8
LOX IMVI = tested on: LOX IMVI
SK-MEL-28 = tested on: SK-MEL-28
SN12C = tested on: SN12C
IGROV-1 = tested on: IGROV-1
MCF7 = tested on: MCF7
SK-OV-3 = tested on: SK-OV-3
HL-60 = tested on: HL-60
NCI-H226 = tested on: NCI-H226
MDA-N = tested on: MDA-N
TK-10 = tested on: TK-10
HT-29 = tested on: HT-29
DMS-273 = tested on: DMS-273

Measured: GI50

COc1ccc2cc(-c3ccc(OC)c(OC)c3)c(=O)oc2c1
inactive: SF-539 > 100 µM | HOP-62 69.5 µM | BT-549 > 100 µM | RPMI-8226 > 100 µM | RXF 393 21.4 µM | OVCAR-3 > 100 µM | UACC-257 > 100 µM | OVCAR-8 > 100 µM | LOX IMVI > 100 µM | SK-MEL-28 > 100 µM | SN12C > 100 µM | IGROV-1 > 100 µM | MCF7 > 100 µM | SK-OV-3 > 100 µM | HL-60 > 100 µM | NCI-H226 > 100 µM | MDA-N > 100 µM | TK-10 > 100 µM | HT-29 > 100 µM

CC1CC2C(=O)N(c3ccccc3)C(=O)C2c2[nH]c3ccccc3c21 (configuration not stated)
inactive: SF-539 38.8 µM | DMS-273 79.4 µM | RPMI-8226 37.6 µM | RXF 393 30.3 µM | OVCAR-3 48.2 µM | OVCAR-8 59.3 µM | LOX IMVI 45.5 µM | SK-MEL-28 58.9 µM | SN12C > 100 µM | IGROV-1 > 100 µM | SK-OV-3 14.2 µM | HL-60 31.8 µM | TK-10 85.7 µM | HT-29 > 100 µM

CCc1ccccc1NC(=O)C(=O)C(C(=O)c1ccc(OC)cc1)c1ccc(OC)cc1 (configuration not stated)
inactive: SF-539 > 100 µM | HOP-62 > 100 µM | DMS-273 > 100 µM | RPMI-8226 > 100 µM | OVCAR-3 > 100 µM | UACC-257 > 100 µM | OVCAR-8 > 100 µM | LOX IMVI > 100 µM | SN12C > 100 µM | IGROV-1 > 100 µM | SK-OV-3 > 100 µM | HL-60 > 100 µM | NCI-H226 > 100 µM | TK-10 > 100 µM | HT-29 > 100 µM

Cc1nc2ccccc2c(=O)n1-c1ccccc1F
inactive: SF-539 > 100 µM | HOP-62 > 100 µM | DMS-273 > 100 µM | RXF 393 > 100 µM | OVCAR-3 > 100 µM | UACC-257 > 100 µM | OVCAR-8 > 100 µM | LOX IMVI > 100 µM | SK-MEL-28 > 100 µM | SN12C > 100 µM | IGROV-1 > 100 µM | SK-OV-3 > 100 µM | HL-60 > 100 µM | NCI-H226 > 100 µM | TK-10 > 100 µM | HT-29 > 100 µM

O=P(O)(OCC(O)O)OCC(O)O
inactive: SF-539 > 100 µM | HOP-62 > 100 µM | DMS-273 > 100 µM | RPMI-8226 > 100 µM | RXF 393 > 100 µM | OVCAR-3 > 100 µM | UACC-257 > 100 µM | OVCAR-8 > 100 µM | LOX IMVI > 100 µM | SK-MEL-28 > 100 µM | IGROV-1 > 100 µM | SK-OV-3 > 100 µM | HL-60 > 100 µM | TK-10 > 100 µM | HT-29 > 100 µM

O=C1c2ccccc2C(=O)N1C/C=N/NS(=O)(=O)c1ccc(F)cc1
inactive: SF-539 > 100 µM | DMS-273 > 100 µM | RPMI-8226 > 100 µM | UACC-257 > 100 µM | OVCAR-8 > 100 µM | LOX IMVI > 100 µM | SN12C > 100 µM | IGROV-1 > 100 µM | HL-60 > 100 µM | NCI-H226 > 100 µM | TK-10 > 100 µM

CC(=N\N)/C(C)=N/N=C(C)/C(C)=N/N
inactive: SF-539 > 100 µM | HOP-62 > 100 µM | BT-549 > 100 µM | RPMI-8226 > 100 µM | RXF 393 > 100 µM | OVCAR-3 > 100 µM | UACC-257 > 100 µM | OVCAR-8 > 100 µM | LOX IMVI > 100 µM | SK-MEL-28 > 100 µM | SN12C > 100 µM | IGROV-1 > 100 µM | MCF7 > 100 µM | SK-OV-3 > 100 µM | HL-60 > 100 µM | NCI-H226 > 100 µM | MDA-N > 100 µM | TK-10 > 100 µM | HT-29 > 100 µM

COC(=O)OCC1OC(N2C(=O)NC(=O)C(Br)C2N=[N+]=[N-])CC1OC(=O)OC (configuration not stated)
inactive: SF-539 > 100 µM | HOP-62 > 100 µM | DMS-273 > 100 µM | RPMI-8226 > 100 µM | RXF 393 > 100 µM | OVCAR-3 > 100 µM | UACC-257 > 100 µM | OVCAR-8 > 100 µM | LOX IMVI > 100 µM | SK-MEL-28 > 100 µM | SN12C > 100 µM | IGROV-1 > 100 µM | SK-OV-3 > 100 µM | NCI-H226 > 100 µM | TK-10 > 100 µM | HT-29 > 100 µM

COc1ccc2c(c1)[n+]([O-])c(C(=O)C/C(=N/NC(=O)C[N+](C)(C)C)C(=O)Nc1cccc(C)c1C)c(C)[n+]2[O-]
inactive: SF-539 > 100 µM | HOP-62 > 100 µM | DMS-273 > 100 µM | RPMI-8226 > 100 µM | RXF 393 > 100 µM | OVCAR-3 > 100 µM | UACC-257 28.6 µM | OVCAR-8 > 100 µM | SK-MEL-28 > 100 µM | SN12C > 100 µM | IGROV-1 > 100 µM | SK-OV-3 > 100 µM | NCI-H226 > 100 µM | HT-29 > 100 µM

O=C(Nn1c(-c2ccccc2)nc2ccccc2c1=O)c1ccccc1O
inactive: SF-539 33.7 µM | HOP-62 76.9 µM | BT-549 38.6 µM | RPMI-8226 51.5 µM | RXF 393 28.2 µM | OVCAR-3 30.3 µM | UACC-257 45.6 µM | OVCAR-8 38.5 µM | LOX IMVI 48.6 µM | SK-MEL-28 39.3 µM | SN12C 37.2 µM | IGROV-1 32.2 µM | MCF7 28.1 µM | SK-OV-3 58.9 µM | HL-60 27.8 µM | NCI-H226 38.9 µM | MDA-N 66.2 µM | TK-10 75.9 µM | HT-29 61.2 µM

Cn1c(=O)c2c(ncn2CCCCn2ccnc2[N+](=O)[O-])n(C)c1=O
inactive: SF-539 > 100 µM | HOP-62 > 100 µM | DMS-273 > 100 µM | RPMI-8226 > 100 µM | RXF 393 > 100 µM | OVCAR-3 > 100 µM | OVCAR-8 > 100 µM | LOX IMVI > 100 µM | SK-MEL-28 > 100 µM | SN12C > 100 µM | IGROV-1 > 100 µM | HL-60 > 100 µM | NCI-H226 > 100 µM | TK-10 > 100 µM | HT-29 > 100 µM

CCCCC/C=C\C=C1\C(=O)C=C[C@@H]1C/C=C\CCCC(=O)O
inactive: SF-539 5.82 µM | HOP-62 2.89 µM | BT-549 2.05 µM | RPMI-8226 1.38 µM | RXF 393 1.94 µM | OVCAR-3 2.9 µM | UACC-257 7.29 µM | OVCAR-8 1.49 µM | LOX IMVI 2.27 µM | SK-MEL-28 6.65 µM | SN12C 2 µM | IGROV-1 2.75 µM | MCF7 4.09 µM | SK-OV-3 7.06 µM | HL-60 2.41 µM | NCI-H226 7.38 µM | MDA-N 1.96 µM | TK-10 8.43 µM | HT-29 5.05 µM
